Results on three compounds are retold here after article PMC6950750, “Newly Discovered Action of HpTx3 from Venom of Heteropoda venatoria on Nav1.7 and Its Pharmacological Implications in Analgesia” (Toxins, 2019).

In data set [1] the test system is Nav1.7. Particulars: cited from earlier work. The text has this: In order to further understand the actions of HpTx3 on the Nav1.7 channel, we examined the effect of the toxin on the current–voltage (I–V) relationship of the Nav channel subtype. […] When the conductance–voltage (G–V) relationship and the steady-state inactivation of Nav1.7 before and after HpTx3 treatment were inve ...

The subject of the next data set is Nav1.1–1.8. The settings on record: cited from earlier work.
The test system of data set [2] is rodent models of acute and inflammatory pain. Particulars: cited from earlier work.
The test system of data set [3] is nociceptive neuron excitability. Particulars: orofacial and other regions in patients; cited from earlier work. From the text:
Kv4 channels are expressed predominately in the somata of small and large diameter nociceptors and the dorsal horn of the spinal cord, and all three Kv4 mRNA isoforms (Kv4.1–4.3) are expressed in whole DRG preparations. Overexpression of various components of the Kv4 complex attenuated DGR excitability and pain phenotypes of animals. The drugs that can increase A-type Kv ...

A further data set has as its target T1, Nav1.2 (Rattus norvegicus, UniProt P04775).
T1 construct: expressed in transfected cells; host or cells: HEK293T
Briefly: Whole-cell patch-clamp, Nav1.2 currents in HEK293T cells. Type of data set: cell-based. From the text:
(§1) All the used Nav channel subtype clones (Nav1.2–Nav1.9) and β subunit clones were preserved in our laboratory. cDNAs encoding rat Nav1.2, rat Nav1.3, human Nav1.5, and mouse Nav1.6 were subcloned into the vector pcDNA3.1; cDNA encoding rat Nav1.4 was subcloned into the vector pRGB4; cDNA encoding human Nav1.7 was subcloned into the vector pcDNA3.1-mod; cDNAs encoding rat Nav1.8 and human Nav1.9 were subcloned into the vectors pCMV-HA and pEGFP-N1, respectively. For localizing the binding sites of HpTx3 on the Nav1.7 and therefore probing the its mechanism of action, several chimeras were constructed with a recombination strategy by replacing the extracellular loop S3b–S4 in domain II, domain III, and domain IV of Nav1.7 with the counterpart sequences of Nav1.8, respectively, using the methods described. As a result, three chimeras were prepared, namely, Nav1.7/1.8DIIS3b–S4, Nav1.7/1.8DIII, and Nav1.7/1.8 DIV. […]
(§2) For heterologous expression, the vector plasmids containing wild-type (WT) Nav1.2–Nav1.7 and mutant plasmids were transiently transfected into HEK293T cells (China Center for Type Culture Collection, Wuhan, China) using Lipofectamine 2000 (Invitrogen, Carlsbad, CA, USA) according to the manufacturer’s instructions. […] The cells with green fluorescence were selected for whole-cell patch-clamp analysis 24 h after transfection. […]
On the technique in general: In patch-clamp work, channel activity is measured electrically.

In the next data set the target is T2, Nav1.3 (Rattus norvegicus, UniProt P08104).
T2 construct: expressed in transfected cells; host or cells: HEK293T
Briefly: Whole-cell patch-clamp, Nav1.3 currents in HEK293T cells. Format: cell-based.
Excerpt: as §1, §2

The next data set concerns the target T3, Nav1.4 (Rattus norvegicus, UniProt P15390).
T3 construct: expressed in transfected cells; host or cells: HEK293T
As to the kind of experiment: Whole-cell patch-clamp, Nav1.4 currents in HEK293T cells. Format: cell-based.
Excerpt: as §1, §2

The next data set deals with T4, Nav1.5 (Homo sapiens, UniProt Q14524).
T4 construct: expressed in transfected cells; host or cells: HEK293T
As to the kind of experiment: cell-based. Format: cell-based.
Excerpt: as §1, §2

Another data set addresses T5, Nav1.6 (Mus musculus, UniProt Q9WTU3).
T5 construct: expressed in transfected cells; host or cells: HEK293T
As to the kind of experiment: Whole-cell patch-clamp, Nav1.6 currents in HEK293T cells. Format: cell-based. The settings on record: HEK-293T, 1 μM HpTx3, n = 4–6.
Excerpt: as §1, §2

Data set [4] deals with T6, Nav1.7 (Homo sapiens, UniProt Q15858).
T6 construct: expressed in transfected cells; host or cells: HEK293T
Briefly: Whole-cell patch-clamp, Nav1.7 currents in HEK293T cells. Type of data set: cell-based. The settings on record: wild type Nav1.7, HEK293T, mean ± SD, n = 4–6.
Excerpt: as §1, §2

Another data set deals with T7, Nav1.7 D816N (Homo sapiens, UniProt Q15858, D827N).
T7 construct: expressed in transfected cells; host or cells: HEK293T
As to the kind of experiment: Whole-cell patch-clamp, mutant Nav1.7 D816N. Format: cell-based. The text has this: All the used Nav channel subtype clones (Nav1.2–Nav1.9) and β subunit clones were preserved in our laboratory. cDNAs encoding rat Nav1.2, rat Nav1.3, human Nav1.5, and mouse Nav1.6 were subcloned into the vector pcDNA3.1; cDNA encoding rat Nav1.4 was subcloned into the vector pRGB4; cDNA encoding human Nav1.7 was subcloned into the vector pcDNA3.1-mod; cDNAs encoding rat Nav1.8 and human Nav1.9 were subcloned into the vectors pCMV-HA and pEGFP-N1, respectively. For localizing the binding sites of HpTx3 on the Nav1.7 and therefore probing the its mechanism of action, several chimeras were constructed with a recombination strategy by replacing the extracellular loop S3b–S4 in domain II, domain III, and domain IV of Nav1.7 with the counterpart sequences of Nav1.8, respectively, using the methods described. As a result, three chimeras were prepared, namely, Nav1.7/1.8DIIS3b–S4, Nav1.7/1.8DIII, and Nav1.7/1.8 DIV. Moreover, the amino acid residues D816 and E818 in the S3b–S4 sequence of Nav1.7 were mutated into N (Nav1.7 D816N) and Q (Nav1.7 […]), respectively.
For heterologous expression, the vector plasmids containing wild-type (WT) Nav1.2–Nav1.7 and mutant plasmids were transiently transfected into HEK293T cells (China Center for Type Culture Collection, Wuhan, China) using Lipofectamine 2000 (Invitrogen, Carlsbad, CA, USA) according to the manufacturer’s instructions. […] The cells with green fluorescence were selected for whole-cell patch-clamp analysis 24 h after transfection.
The whole-cell patch-clamp technique was employed to analyze the effects of HpTx3 on Nav channel subtypes in the transfected HEK293T and ND7/23 cells using an EPC-10 USB patch-clamp amplifier (HEKA, Elektronik, Lambrecht, Germany). […] Data were collected with the PatchMaster software in the HEKA EPC-10 USB patch-clamp system (HEKA Elektronik, Lambrecht, Germany) and analyzed by the software Igo Pro-6.00, Prism (GraphPad Software, La Jolla, CA, USA), Sigmaplot 10.0 (Systat Software, Inc., San Jose, CA, USA), and OriginPro. […]

A further data set concerns C57BL/6 mice. Briefly: In vivo toxicity. More on the design: species or system mouse (C57BL/6). The settings on record: 20 mg/kg i.p., 8 mice. Here is the method:
For detecting the potential in vivo toxicity of HpTx3, eight C57BL/6 mice were each intraperitoneally injected with HpTx3 at a dose of 20 mg/kg, which was 4-fold greater than the maximum dose (5 mg/kg) and 100-fold greater than the minimum dose (0.2 mg/kg) that were used in analgesic experiments.

The next data set relates to hERG channel. Briefly: Whole-cell patch-clamp, hERG channel in HEK293T cells. Type of data set: cell-based. Particulars: 1 µM HpTx3, n = 3. Here is the method: The effect of HpTx3 on the hERG channel expressed in HEK293T cells was assayed using the whole cell patch-clamp technique according to the previous method with some modifications. The bathing solution contained (in mM): HEPES 10, MgCl2 1, CaCl2 25, KCl 5, NaCl 50 (pH 7.4, adjusted with 1 M NaOH). The suction pipettes solution contained (in mM): MgCl2 2.5, KCl 140, EGTA 11, HEPES 10 (pH 7.2, adjusted with KOH). The osmotic pressure of the two solutions was adjusted to 280 ± 5 mOsm/L with sucrose. The currents of the hERG channel were induced at −40 mV after a test potential of +30 mV from a holding potential of −80 mV.

The mark [5] stands for this setting: HEK293T, whole-cell patch-clamp, mean ± SD, n = 4–6.

Bridge positions count the residues as written; N and C are the ends. Peptide text beside a SMILES is read from it.

T7 sequence (Q15858 other isoform, or with tags, fused parts or gaps D816N): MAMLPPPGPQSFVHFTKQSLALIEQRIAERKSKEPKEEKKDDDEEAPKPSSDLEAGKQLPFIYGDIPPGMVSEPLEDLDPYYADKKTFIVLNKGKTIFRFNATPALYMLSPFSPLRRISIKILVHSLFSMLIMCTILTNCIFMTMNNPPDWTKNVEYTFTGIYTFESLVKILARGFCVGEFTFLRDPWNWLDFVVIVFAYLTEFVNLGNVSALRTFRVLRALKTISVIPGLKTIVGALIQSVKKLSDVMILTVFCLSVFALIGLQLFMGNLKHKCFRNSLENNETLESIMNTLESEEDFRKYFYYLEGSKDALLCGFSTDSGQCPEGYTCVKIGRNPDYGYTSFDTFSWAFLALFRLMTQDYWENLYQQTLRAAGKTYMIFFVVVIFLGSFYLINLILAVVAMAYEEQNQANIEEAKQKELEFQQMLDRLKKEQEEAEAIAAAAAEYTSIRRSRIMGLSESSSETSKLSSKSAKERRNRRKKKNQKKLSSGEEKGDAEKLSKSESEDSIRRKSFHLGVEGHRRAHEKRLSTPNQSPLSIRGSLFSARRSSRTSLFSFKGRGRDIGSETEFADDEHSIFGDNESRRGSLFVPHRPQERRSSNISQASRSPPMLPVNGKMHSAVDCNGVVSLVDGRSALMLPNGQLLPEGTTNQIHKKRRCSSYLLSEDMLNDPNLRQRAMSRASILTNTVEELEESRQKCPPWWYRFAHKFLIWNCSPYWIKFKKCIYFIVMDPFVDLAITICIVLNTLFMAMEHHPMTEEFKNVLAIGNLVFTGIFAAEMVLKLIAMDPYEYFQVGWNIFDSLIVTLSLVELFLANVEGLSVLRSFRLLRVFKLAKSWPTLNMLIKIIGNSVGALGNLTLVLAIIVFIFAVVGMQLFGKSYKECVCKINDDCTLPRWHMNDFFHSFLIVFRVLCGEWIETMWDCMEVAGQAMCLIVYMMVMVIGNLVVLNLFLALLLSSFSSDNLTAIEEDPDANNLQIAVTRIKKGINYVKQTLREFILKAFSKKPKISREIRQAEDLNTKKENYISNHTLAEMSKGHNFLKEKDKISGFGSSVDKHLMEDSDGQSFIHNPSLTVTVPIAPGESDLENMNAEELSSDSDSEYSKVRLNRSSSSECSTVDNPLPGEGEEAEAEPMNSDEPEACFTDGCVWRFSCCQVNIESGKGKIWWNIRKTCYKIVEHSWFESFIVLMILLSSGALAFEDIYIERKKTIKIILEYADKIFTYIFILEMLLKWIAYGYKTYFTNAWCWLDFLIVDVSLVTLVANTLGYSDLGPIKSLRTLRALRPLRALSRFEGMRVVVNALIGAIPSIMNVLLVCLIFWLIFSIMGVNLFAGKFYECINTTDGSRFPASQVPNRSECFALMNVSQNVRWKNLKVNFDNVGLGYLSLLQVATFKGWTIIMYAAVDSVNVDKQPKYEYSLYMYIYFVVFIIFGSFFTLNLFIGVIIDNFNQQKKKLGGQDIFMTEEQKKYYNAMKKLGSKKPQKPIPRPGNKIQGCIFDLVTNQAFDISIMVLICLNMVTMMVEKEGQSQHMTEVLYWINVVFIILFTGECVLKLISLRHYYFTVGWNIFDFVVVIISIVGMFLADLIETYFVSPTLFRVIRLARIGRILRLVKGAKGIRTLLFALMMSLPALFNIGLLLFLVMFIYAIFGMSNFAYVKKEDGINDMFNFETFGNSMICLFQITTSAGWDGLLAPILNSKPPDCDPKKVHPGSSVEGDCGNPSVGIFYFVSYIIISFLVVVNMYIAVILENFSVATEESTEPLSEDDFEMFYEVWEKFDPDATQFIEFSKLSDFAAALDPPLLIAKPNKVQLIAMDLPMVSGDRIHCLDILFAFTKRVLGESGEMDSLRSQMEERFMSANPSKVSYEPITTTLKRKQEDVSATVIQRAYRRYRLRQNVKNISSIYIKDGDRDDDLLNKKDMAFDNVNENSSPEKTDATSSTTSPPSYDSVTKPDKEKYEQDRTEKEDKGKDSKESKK
T7 sequence (Q07699 19-218, further chain): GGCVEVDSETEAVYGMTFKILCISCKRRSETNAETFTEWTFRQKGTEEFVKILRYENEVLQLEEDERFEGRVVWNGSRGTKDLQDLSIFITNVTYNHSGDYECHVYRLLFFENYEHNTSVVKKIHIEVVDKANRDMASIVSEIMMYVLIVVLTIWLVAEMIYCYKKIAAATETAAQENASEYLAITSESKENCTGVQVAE
T7 sequence (O60939 30-215, further chain): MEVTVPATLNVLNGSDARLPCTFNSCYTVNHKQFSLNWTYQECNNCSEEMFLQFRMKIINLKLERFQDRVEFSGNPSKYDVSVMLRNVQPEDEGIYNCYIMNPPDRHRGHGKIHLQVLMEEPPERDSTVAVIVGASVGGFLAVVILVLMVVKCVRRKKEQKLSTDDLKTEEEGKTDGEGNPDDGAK
T3 sequence (P15390 whole entry): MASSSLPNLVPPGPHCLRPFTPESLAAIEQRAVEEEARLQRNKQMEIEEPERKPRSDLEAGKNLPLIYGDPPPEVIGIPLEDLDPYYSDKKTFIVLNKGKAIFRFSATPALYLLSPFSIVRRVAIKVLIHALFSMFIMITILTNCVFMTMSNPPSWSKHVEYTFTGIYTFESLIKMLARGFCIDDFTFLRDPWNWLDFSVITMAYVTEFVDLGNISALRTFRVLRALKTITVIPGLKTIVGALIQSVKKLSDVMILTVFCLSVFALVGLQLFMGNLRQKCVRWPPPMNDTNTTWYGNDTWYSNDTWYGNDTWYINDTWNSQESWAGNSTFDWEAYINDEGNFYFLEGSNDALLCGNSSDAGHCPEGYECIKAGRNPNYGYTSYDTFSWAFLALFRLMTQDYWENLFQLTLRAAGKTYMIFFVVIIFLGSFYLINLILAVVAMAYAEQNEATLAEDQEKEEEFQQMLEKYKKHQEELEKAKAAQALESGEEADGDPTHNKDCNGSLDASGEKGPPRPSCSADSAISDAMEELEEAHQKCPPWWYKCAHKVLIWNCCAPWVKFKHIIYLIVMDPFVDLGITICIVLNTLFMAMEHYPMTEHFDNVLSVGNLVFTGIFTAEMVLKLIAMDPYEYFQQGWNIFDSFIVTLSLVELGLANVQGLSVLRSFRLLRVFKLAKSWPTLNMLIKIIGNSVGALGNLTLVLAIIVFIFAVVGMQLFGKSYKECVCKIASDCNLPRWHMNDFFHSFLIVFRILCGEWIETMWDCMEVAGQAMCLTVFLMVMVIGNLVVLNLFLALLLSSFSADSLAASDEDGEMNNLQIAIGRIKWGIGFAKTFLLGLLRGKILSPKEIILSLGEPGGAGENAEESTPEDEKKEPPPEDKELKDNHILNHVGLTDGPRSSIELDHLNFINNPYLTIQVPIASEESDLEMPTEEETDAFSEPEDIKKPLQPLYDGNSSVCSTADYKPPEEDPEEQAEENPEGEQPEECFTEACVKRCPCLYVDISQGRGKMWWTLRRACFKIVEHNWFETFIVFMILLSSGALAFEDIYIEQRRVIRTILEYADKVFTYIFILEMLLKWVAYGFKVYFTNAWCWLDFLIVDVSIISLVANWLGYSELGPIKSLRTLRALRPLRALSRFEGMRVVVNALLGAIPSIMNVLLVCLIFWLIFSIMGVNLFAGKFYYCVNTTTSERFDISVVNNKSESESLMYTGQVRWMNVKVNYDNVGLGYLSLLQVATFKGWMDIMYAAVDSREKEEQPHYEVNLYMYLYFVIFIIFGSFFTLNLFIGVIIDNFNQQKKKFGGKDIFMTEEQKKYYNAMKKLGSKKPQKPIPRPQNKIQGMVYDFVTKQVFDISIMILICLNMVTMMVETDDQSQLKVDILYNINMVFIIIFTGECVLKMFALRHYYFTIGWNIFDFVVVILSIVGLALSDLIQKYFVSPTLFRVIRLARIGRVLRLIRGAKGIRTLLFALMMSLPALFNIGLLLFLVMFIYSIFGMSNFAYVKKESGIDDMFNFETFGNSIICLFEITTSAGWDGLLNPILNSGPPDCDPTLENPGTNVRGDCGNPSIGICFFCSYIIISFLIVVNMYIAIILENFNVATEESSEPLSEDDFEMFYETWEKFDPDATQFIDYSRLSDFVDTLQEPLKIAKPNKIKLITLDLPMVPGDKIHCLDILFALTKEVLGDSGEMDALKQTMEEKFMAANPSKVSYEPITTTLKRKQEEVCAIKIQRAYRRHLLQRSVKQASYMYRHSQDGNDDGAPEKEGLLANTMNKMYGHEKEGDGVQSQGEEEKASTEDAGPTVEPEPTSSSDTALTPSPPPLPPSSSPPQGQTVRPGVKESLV
T6 sequence (O60939 30-215): as the sequence (O60939 30-215, further chain) above
T6 sequence (Q07699 19-218, further chain): as the sequence (Q07699 19-218, further chain) above
T6 sequence (Q15858 other isoform, or with tags, fused parts or gaps): as the sequence (Q15858 other isoform, or with tags, fused parts or gaps D816N) above, with N816D counted along it

Take ProTx-II: typical gating modifier toxin: the “shift of Nav1.7 channel activation in the depolarizing direction” value in the data set on Nav1.7 [1] was 31.1 mV. In the data set on Nav1.1–1.8, the “inhibition of sodium channel subtypes” value is given as “can inhibit multiple sodium channel subtypes (Nav1.1–1.8), but preferentially inhibits hNav1.7”. Also, the “efficacy in rodent models of acute and inflammatory pain” value in [2] was “not efficacious”.
As to `O=C1[O][Pt]2([NH][C@@H]3CCCC[C@H]3[NH]2)[O]C1=O` [Oxaliplatin], the “effect on nociceptive neuron excitability” value in [3] is on record as “increases nociceptive neuron excitability to result in neuropathic pain”.
Regarding `CC[C@H](C)[C@@H]1NC(=O)[C@H](Cc2ccccc2)NC(=O)CNC(=O)[C@H](CCC(=O)O)NC(=O)[C@@H]2CSSC[C@H](NC(=O)[C@@H](N)CCC(=O)O)C(=O)NCC(=O)N[C@@H]([C@@H](C)O)C(=O)N[C@@H](CC(C)C)C(=O)N[C@@H](Cc3ccccc3)C(=O)N[C@@H](CO)C(=O)NCC(=O)N[C@H]3CSSC[C@H](NC1=O)C(=O)N[C@@H](CCCCN)C(=O)N[C@@H](CC(C)C)C(=O)N[C@@H](Cc1c[nH]c4ccccc14)C(=O)N[C@H](C(=O)N[C@@H](CCCNC(=N)N)C(=O)N[C@@H](Cc1ccc(O)cc1)C(=O)N[C@@H](CCC(=O)O)C(=O)N[C@@H](CCCNC(=N)N)C(=O)N[C@H](C(=O)N[C@@H](Cc1c[nH]c4ccccc14)C(N)=O)[C@@H](C)O)CSSC[C@H](NC(=O)[C@H](CC(=O)O)NC(=O)[C@H](C)NC(=O)[C@H](Cc1c[nH]cn1)NC(=O)[C@H]([C@@H](C)O)NC(=O)[C@H](CO)NC3=O)C(=O)N2` [HpTx3, Heteropodatoxin3] (H-ECGTLFSGCSTHADCCEGFICKLWCRYERTW-NH2; disulfide 2-16, 9-21, 15-25), the IC50 at Nav1.2 (setting [5]) turned out to be 19.7 ± 0.49 µM; on Nav1.3 (setting [5]), 14.1 ± 2.5 µM; on Nav1.4 (setting [5]), 18.5 ± 0.21 µM; on Nav1.7 [4] it was 0.136 ± 0.013 µM; on Nav1.7 D816N (HEK293T, mean ± SD, n = 6), 3.13 ± 2.6 µM. Also, at Nav1.2 (ratio of IC50), the “selectivity for Nav1.7 over Nav1.2” value came to 145 fold. Moreover, at Nav1.3 (ratio of IC50), the “selectivity for Nav1.7 over Nav1.3” value came out at 104 fold. For the same compound, on Nav1.4 (ratio of IC50), the “selectivity for Nav1.7 over Nav1.4” value is given as 136 fold. Besides, the inhibition at 1 µM at Nav1.5 (HEK-293T, 1 μM HpTx3, HEK293T, whole-cell patch-clamp, n = 4–6, read-out: inhibition of Nav1.5 currents) turned out to be 12.8%; at Nav1.6, 46%; on Nav1.7 D816N (HEK-293T, 1 μM HpTx3, HEK293T, n = 6, read-out: inhibition of Nav1.7 D816N current), 23.7%. In addition, the “selectivity for Nav1.7 over Nav1.5” value on Nav1.5 (ratio of IC50) was found to be 122 fold. For the same compound, the “IC50 difference Nav1.7 D816N versus wild type Nav1.7” value on Nav1.7 D816N (ratio of IC50) was 23 fold. Besides, the course of symptoms entry in the data set on C57BL/6 mice (after 5 min and after 10 min) was “the symptoms became gradually weaker and disappeared completely after 10 min”. In addition, the symptoms after injection entry in the data set on C57BL/6 mice (within 5 min after injection) was “some discomfort symptoms such as body curling and writhing”. The “inhibition of hERG channel current” value in the data set with hERG channel is given as “about 40%”.

One may read the IC50 as the midpoint of a concentration-inhibition curve. What is called inhibition is the change of the read-out against control, counted positive when it falls.
